Experimental findings from patent US20260242391A1 (priority 2023, published 2026) are described below.

One data set deals with HL-60. The data set can be described thus: HL-60 differentiation potency. It counts as cell-based. Conditions: Homo sapiens.
The next data set is described as follows: in vitro. The conditions noted are these: human.

In the data set with HL-60, `C[C@H]1[C@@H](Oc2ccc(C(=O)N[C@@H](CC3CCC3)C(=O)O)cc2)O[C@@H]2O[C@@]3(C)CC[C@H]4[C@H](C)CC[C@@H]1[C@@]24OO3` [Compound 205, (S)-3-cyclobutyl-2-(4-(((3R,5aS,6R,8aS, 9R,10S,12R, 12aR)-3,6,9-trimethyldeca-hydro-12H-3,12-epoxy[1,2]dioxepino[4,3-i]isochromen-10-yl)oxy)benzamido) propanoic acid] yielded an EC50 of 35.1 nM. The midpoint of inhibition in “in vitro”, the IC50, lay at 110 nM.
`C[C@H]1[C@@H](Oc2ccc(C(=O)N[C@H]3CCC(=O)NC3=O)cc2)O[C@@H]2O[C@@]3(C)CC[C@H]4[C@H](C)CC[C@@H]1[C@@]24OO3` [Compound 198, N-((S)-2,6-dioxopiperidin-3-yl)-4-(((3R,5aS,6R,8aS, 9R,10S,12R, 12aR)-3,6,9-trimethyldeca-hydro-12H-3,12-epoxy[1,2]dioxepino[4,3-i]isochromen-10-yl)oxy)benzamide] gave an EC50 in the data set with HL-60 of 47.9 nM. Also, the IC50 in the data set “in vitro” came out at 4000 nM.
For `C[C@H]1[C@@H](Oc2ccc(CC(=O)N[C@@H]3CC[C@H](C(=O)O)C3)cc2)O[C@@H]2O[C@@]3(C)CC[C@H]4[C@H](C)CC[C@@H]1[C@@]24OO3` [Compound 289, (1S,3R)-3-(2-(4-(((3R,5aS,6R,8aS, 9R,10S,12R, 12aR)-3,6,9-trimethyldeca-hydro-12H-3,12-epoxy[1,2]dioxepino[4,3-i]isochromen-10-yl)oxy)phenyl)acetamido) cyclopentane-1-carboxylic acid], in that order: 27.6 nM and more than 20000 nM.
In the data set on HL-60, `C[C@H]1[C@@H](Oc2ccc(OC(C)(C)C(=O)O)cc2)O[C@@H]2O[C@@]3(C)CC[C@H]4[C@H](C)CC[C@@H]1[C@@]24OO3` [Compound 221, 2-methyl-2-(4-(((3R,5aS,6R,8aS, 9R,10S,12R, 12aR)-3,6,9-trimethyldeca-hydro-12H-3,12-epoxy[1,2]dioxepino[4,3-i]isochromen-10-yl)oxy)phenoxy) propanoic acid] had an EC50 of 124 nM. The same compound displayed a half-inhibitory concentration (IC50) in “in vitro” of 9610 nM.
On the same counts, the results for `C[C@H]1[C@@H](Oc2cc(F)cc(OCC(=O)O)c2)O[C@@H]2O[C@@]3(C)CC[C@H]4[C@H](C)CC[C@@H]1[C@@]24OO3` [Compound 220, 2-(3-fluoro-5-(((3R,5aS,6R,8aS, 9R,10S,12R, 12aR)-3,6,9-trimethyldeca-hydro-12H-3,12-epoxy[1,2]dioxepino[4,3-i]isochromen-10-yl)oxy)phenoxy) acetic acid] are 70.8 nM and 1880 nM.
With `C[C@H]1[C@@H](O[C@H]2CC[C@@H](C(=O)N[C@H](C(=O)O)C(C)(C)O)CC2)O[C@@H]2O[C@@]3(C)CC[C@H]4[C@H](C)CC[C@@H]1[C@@]24OO3` [Compound 249, (S)-3-hydroxy-3-methyl-2-((1R,4R)-4-(((3R,5aS,6R,8aS, 9R,10S,12R, 12aR)-3,6,9-trimethyldeca-hydro-12H-3,12-epoxy[1,2]dioxepino[4,3-i]isochromen-10-yl)oxy)cyclo-hexane-1-carboxamido) butanoic acid], in the data set on HL-60, the EC50 was 20000 nM. The IC50 in the data set “in vitro” was more than 20000 nM.
`C[C@H]1[C@@H](Oc2ccc(Cn3cc(C(=O)O)nn3)cc2)O[C@@H]2O[C@@]3(C)CC[C@H]4[C@H](C)CC[C@@H]1[C@@]24OO3` [Compound 245, 1-(4-(((3R,5aS,6R,8aS, 9R,10S,12R, 12aR)-3,6,9-trimethyldeca-hydro-12H-3,12-epoxy[1,2]dioxepino[4,3-i]isochromen-10-yl)oxy)benzyl)-1H-1,2,3-triazole-4-carboxylic acid] had an EC50 in the data set with HL-60 of 1340 nM. Besides, the IC50 in the data set “in vitro” is more than 20000 nM.
For `C[C@H]1[C@@H](OC[C@@]2(F)CCC(C(=O)O)C2)O[C@@H]2O[C@@]3(C)CC[C@H]4[C@H](C)CC[C@@H]1[C@@]24OO3` (stereo partly drawn) [Compound 210, (3R)-3-fluoro-3-((((3R,5aS,6R,8aS, 9R,10S,12R, 12aR)-3,6,9-trimethyldeca-hydro-12H-3,12-epoxy[1,2]dioxepino[4,3-i]isochromen-10-yl)oxy)methyl) cyclopentane-1-carboxylic acid], in that order: 2500 nM and 7580 nM.
`C[C@H]1[C@@H](Oc2ccc(C(=O)N3CC(C(=O)O)C3)cc2Cl)O[C@@H]2O[C@@]3(C)CC[C@H]4[C@H](C)CC[C@@H]1[C@@]24OO3` [Compound 244, 1-(3-chloro-4-(((3R,5aS,6R,8aS, 9R,10S,12R, 12aR)-3,6,9-trimethyldeca-hydro-12H-3,12-epoxy[1,2]dioxepino[4,3-i]isochromen-10-yl)oxy)benzoyl) azetidine-3-carboxylic acid] gave an EC50 with HL-60 of 101 nM. Also, the midpoint of inhibition in “in vitro”, the IC50, lay at 2460 nM.
Compound `C[C@H]1[C@@H](O[C@H]2C[C@@H](C(=O)N[C@H](C(=O)O)c3ccc(C(F)(F)F)cc3)C2)O[C@@H]2O[C@@]3(C)CC[C@H]4[C@H](C)CC[C@@H]1[C@@]24OO3` [Compound 257, (S)-2-(4-(trifluoromethyl)phenyl)-2-((1R,3R)-3-(((3R,5aS,6R,8aS, 9R,10S,12R, 12aR)-3,6,9-trimethyldeca-hydro-12H-3,12-epoxy[1,2]dioxepino[4,3-i]isochromen-10-yl)oxy)cyclo-butane-1-carboxamido) acetic acid] displayed an EC50 in the data set with HL-60 of 3210 nM. In “in vitro”, this compound registered an IC50 of 11500 nM.
Take `C[C@H]1[C@@H](Oc2ccc(C(=O)N3CC[C@@H](C(=O)O)C3)cc2Cl)O[C@@H]2O[C@@]3(C)CC[C@H]4[C@H](C)CC[C@@H]1[C@@]24OO3` [Compound 247, (R)-1-(3-chloro-4-(((3R,5aS,6R,8aS, 9R,10S,12R, 12aR)-3,6,9-trimethyldeca-hydro-12H-3,12-epoxy[1,2]dioxepino[4,3-i]isochromen-10-yl)oxy)benzoyl) pyrrolidine-3-carboxylic acid]: the midpoint of the response in the data set with HL-60, the EC50, lay at 56.1 nM. Further, the IC50 in “in vitro” worked out at 1420 nM.
For `C[C@H]1[C@@H](Oc2ccc(C(=O)N3[C@H](C(=O)O)C[C@@H]4CCC[C@@H]43)cc2)O[C@@H]2O[C@@]3(C)CC[C@H]4[C@H](C)CC[C@@H]1[C@@]24OO3` [Compound 207, (2S,3aS,6aS)-1-(4-(((3R,5aS,6R,8aS, 9R,10S,12R, 12aR)-3,6,9-trimethyldeca-hydro-12H-3,12-epoxy[1,2]dioxepino[4,3-i]isochromen-10-yl)oxy)benzoyl) octahydrocyclo penta[b]pyrrole-2-carboxylic acid], the EC50 in the data set on HL-60 came to 150 nM. The same compound registered an IC50 in “in vitro” of 680 nM.
Regarding `C[C@H]1[C@@H](OCc2ccc(OCC(=O)O)cc2)O[C@@H]2OC3(C)CC[C@H]4[C@H](C)CC[C@@H]1[C@@]24OO3` (stereo in doubt) [Compound 274, 2-(4-((((3R,5aS,6R,8aS, 9R,10S,12R, 12aR)-3,6,9-trimethyldeca-hydro-12H-3,12-epoxy[1,2]dioxepino[4,3-i]isochromen-10-yl)oxy)methyl)phenoxy)acetic acid], in the data set with HL-60, the EC50 was 848 nM. The IC50 in the data set “in vitro” was more than 20000 nM.
As to `C[C@H]1[C@@H](O[C@H]2CC[C@@H](C(=O)N3CC(C(=O)O)C3)CC2)O[C@@H]2O[C@@]3(C)CC[C@H]4[C@H](C)CC[C@@H]1[C@@]24OO3` [Compound 259, 1-((1R,4s)-4-(((3R,5aS,6R,8aS, 9R,10S,12R, 12aR)-3,6,9-trimethyldeca-hydro-12H-3,12-epoxy[1,2]dioxepino[4,3-i]isochromen-10-yl)oxy)cyclo-hexane-1-carbonyl) azetidine-3-carboxylic acid], in the data set on HL-60, the concentration for a half-maximal effect (EC50) is 172 nM. Besides, the IC50 in “in vitro” (HL-60 cells) amounted to 10800 nM.
In the data set with HL-60, `C[C@H]1[C@@H](O[C@H]2C[C@@H](C(=O)NC34C5C6C3C3C4C5C63C(=O)O)C2)O[C@@H]2O[C@@]3(C)CC[C@H]4[C@H](C)CC[C@@H]1[C@@]24OO3` (stereo partly drawn) [Compound 255, 4-((1R,3s)-3-(((3R,5aS,6R,8aS, 9R,10S,12R, 12aR)-3,6,9-trimethyldeca-hydro-12H-3,12-epoxy[1,2]dioxepino[4,3-i]isochromen-10-yl)oxy)cyclo-butane-1-carboxamido) cubane-1-carboxylic acid] showed an EC50 of 2320 nM. The IC50 in the data set “in vitro” was more than 20000 nM.
For `C[C@H]1[C@@H](OCC2(F)CCCC(C(=O)O)C2)O[C@@H]2O[C@@]3(C)CC[C@H]4[C@H](C)CC[C@@H]1[C@@]24OO3` (stereo partly drawn) [Compound 222, 3-fluoro-3-((((3R,5aS,6R,8aS, 9R,10S,12R, 12aR)-3,6,9-trimethyldeca-hydro-12H-3,12-epoxy[1,2]dioxepino[4,3-i]isochromen-10-yl)oxy)methyl) cyclohexane-1-carboxylic acid], in that order: 134 nM and 19000 nM.
As to `C[C@@H]1CC[C@H]2[C@@H](C)C(OCc3ccc(C(=O)O)cc3C(F)(F)F)O[C@@H]3O[C@@]4(C)CC[C@@H]1[C@]32OO4` (stereo partly drawn) [Compound 197, 3-(trifluoromethyl)-4-((((3R,5aS,6R,8aS, 9R,12R, 12aR)-3,6,9-trimethyldeca-hydro-12H-3,12-epoxy[1,2]dioxepino[4,3-i]isochromen-10-yl)oxy)methyl) benzoic acid], the midpoint of the response in the data set with HL-60, the EC50, lay at 66 nM. The compound further had an IC50 in “in vitro” of 5380 nM.
In turn, `CO[C@]1(CO[C@H]2O[C@@H]3O[C@@]4(C)CC[C@H]5[C@H](C)CC[C@@H]([C@H]2C)[C@@]35OO4)CC[C@H](C(=O)O)CC1` [Compound 193, (1R,4s)-4-methoxy-4-((((3R,5aS,6R,8aS, 9R,10S,12R, 12aR)-3,6,9-trimethyldeca-hydro-12H-3,12-epoxy[1,2]dioxepino[4,3-i]isochromen-10-yl)oxy)methyl) cyclohexane-1-carboxylic acid] displayed an EC50 in the data set on HL-60 of 7030 nM. The IC50 in the data set “in vitro” was more than 20000 nM.
Regarding `C[C@H]1[C@@H](Oc2ccc(C(=O)N[C@H](C(=O)O)c3ccccc3)cc2)O[C@@H]2O[C@@]3(C)CC[C@H]4[C@H](C)CC[C@@H]1[C@@]24OO3` [Compound 234, (S)-2-phenyl-2-(4-(((3R,5aS,6R,8aS, 9R,10S,12R, 12aR)-3,6,9-trimethyldeca-hydro-12H-3,12-epoxy[1,2]dioxepino[4,3-i]isochromen-10-yl)oxy)benzamido) acetic acid], in the data set on HL-60, the response was half-maximal at 112 nM (EC50). Further, half-maximal inhibition in the data set “in vitro” (IC50) was put at 1270 nM.
The compound `C[C@H]1[C@@H](OC2CCc3cc(C(=O)O)ccc32)O[C@@H]2O[C@@]3(C)CC[C@H]4[C@H](C)CC[C@@H]1[C@@]24OO3` (stereo partly drawn) [Compound 226, 1-(((3R,5aS,6R,8aS, 9R,10S,12R, 12aR)-3,6,9-trimethyldeca-hydro-12H-3,12-epoxy[1,2]dioxepino[4,3-i]isochromen-10-yl)oxy)-2,3-dihydro-1H-indene-5-carboxylic acid] displayed an EC50 in the data set on HL-60 of 51.2 nM. Also, it took 12000 nM to reach half-maximal inhibition in “in vitro” (IC50).

The EC50 is the concentration giving half of the maximal effect. For orientation: IC50 means the concentration that gives 50% inhibition. Higher therefore signals a need for much substance.
